Assay results as given in US9212205B2, “Nucleic acid binding compounds and methods of use” (University of Rochester, priority 2007, dated 2015).
Like-named read-outs stand apart in the source and are kept apart here.

Target: HIV-1 frameshift-inducing RNA stem-loop (SEQ ID NO:1)
Assay: Fluorescence titration of Cy-3 labeled HIV-1 RNA stem-loop
Type: binding
Settings: stem-loop 4 × 10^−7 M, PBS buffer, 25° C.
Protocol: The binding of dicarba analogs to the HIV-1 frameshift-inducing RNA was measured using fluorescence spectroscopy. Fluorescence titrations were performed on a Varian Cary eclipse fluorescence spectrophotometer using 1 cm path-length quartz fluorescence cell. The solution of Cy-3 labeled HIV-1 RNA stem-loop in PBS buffer (400 μL, 400 nM) was taken in the cell and excited with a wavelength of 550 nm. A PMT voltage of 715 V was used for collecting the fluorescence data and the emission spectrum was collected from 555 to 600 nm wavelength range. The ligand solution in PBS buffer was added to the target RNA in the cell in either 2 or 4 μL increments and was allowed to equilibrate for 10 minutes before recording the emission spectrum. Statistical analysis of the data was carried out using Origin 7 (OriginLab corporation). Binding constants were determined by fitting the data to one-site binding model equation.
A 5′-Cy3 labeled upper stem-loop of HIV-1 RNA (SEQ ID NO:1) was titrated with increasing amount of the dicarba analogs in a phosphate buffer (PBS, pH 7.4) using the same protocol to that described in Example 3 above. The fluorescence intensity of the labeled RNA stem-loop decreased as a function of the ligand concentration. […] Normally, one would expect a greater difference between the affinities of the two isomers.
To further evaluate the binding selectivity of dicarba analogs to the frameshift-inducing stem-loop, fluorescence titrations were repeated in the presence of twenty-fold excess concentration of yeast tRNA. […] In an interesting result it was discovered that the monomeric compound (5) also bound to the HIV-1 RNA stem-loop with similar affinity as that of the other analogs, but the binding affinity was diminished in the presence of tRNA. […] Quinoline is a known intercalator of nucleotide bases and has the capability to interact with RNA non-specifically. But it is the peptidic part of the molecule in ligands 5-5 E and 5-5 Z that imparts specificity to the interaction between the ligand and the RNA stem-loop. The peptidic part on monomer 5 is insufficient to impart specificity to the interaction as evident from the results.

With CCc1nc2ccccc2cc1C(=O)N[C@@H](CSSC[C@H](NC(=O)c1cc2ccccc2nc1CC)C(=O)N1CCC[C@H]1C(=O)N[C@@H](Cc1ccccc1)C(=O)NCCCN)C(=O)N1CCC[C@H]1C(=O)N[C@@H](Cc1ccccc1)C(=O)NCCCN [dimer 1-1] the Kd (8 μM tRNA (twenty-fold excess), read-out: Binding Affinity (Kd) in the presence of excess yeast tRNA) was 320 ± 70 nM and the Kd (fluorescence titration, read-out: Binding Affinity (Kd)) was 350 ± 110 nM.
